Experimental findings from EP2698385A1, “Detection of synthetic cannabinoids” (priority 2012, dated 2014) are described below.

Like-named read-outs stand apart in the source and are kept apart here.

Holding throughout (format): binding, sheep
For one assay, the system named is Antibody to Immunogen II. Briefly: Competitive ELISA (Example 36), antibody RS1833B12, tracer ESC4555/LK959, standard JWH-018. Particulars: Cross-reactants at 100 ng/ml; Antibody to Immunogen II. The procedure:
An aqueous solution of each immunogen was formulated with Freund's Complete Adjuvant (FCA) to form an emulsion consisting of 2mg/ml* immunogen in 50% (v/v) FCA. Three sheep were immunised with this emulsion (1° immunisation), 0.25ml being intramuscularly injected at each of four sites in the flank of each animal. Subsequent immunizations (boosts) contained 1mg/ml* immunogen. All boosts were emulsified in 50% (v/v) Freund's Incomplete Adjuvant (FIA) and were administered in the same manner as the 1° immunisation, at monthly intervals. Blood sampling took place 7 to 14 days after each boost. *The general procedure for immunogen administration is outlined above, however, it was necessary to deviate from this protocol in some cases, due to reduced immunogen concentrations (Immunogens II, IV, VII and VIII) and/or amount available (Immunogen VIII). Any deviations from the protocol described are outlined in Table 1A below and highlighted in bold. Table 1A: Amount and volume of immunogens administered for primary and subsequent boosts
The appropriate antibody coating dilution was determined using standard ELISA checkerboard techniques. The plate was incubated overnight at 4°C, washed 4 times over 10 minutes with Tris buffered saline containing Tween 20 (TBST) and tapped dry. […] 75µl of conjugate (appropriate hapten-HRP) diluted in Tris buffer (pH 7.2) containing EDTA, D-mannitol, sucrose, thimerosal and BSA, was added to each of the wells. The appropriate dilution of conjugate was also determined using standard ELISA checkerboard techniques. The plate was incubated at 25°C for 1 hour. Excess unbound conjugate was removed by washing 6 times over a 10 minute period with TBST. 125µl of tetramethylbenzidine (TMB) substrate solution was added to each well of the plate that was then incubated for 20 minutes in the dark at room temperature. The reaction was terminated by addition of 125µl 0.2M H2SO4 to each well. The absorbance was then measured at 450nm using a microtiter plate reader. The data are inputted to a computer program called 'KC Junior'. It is a 4 parameter fit curve and allow the calculatation of concentrations between the standard runs.
In a similar manner to that described above, the wells of a 96-well microtiter plate were coated with the IgG fraction of the antiserum raised to Immunogens I or II.
The data set our in Tables 3 and 4 are generated using antibodies raised against the indicated Immunogens in a competitive binding assay with the indicated tracers, using the indicated standards: Table 2
Using the calibration curves generated and employing a single level of cross reactants, these were used to determine the cross-reactivity of each immunoassay with these substances. These are the standards used for the IC50 and cross-reactivity data generation • Immunogen I - JWH-018 • Immunogen II - JWH-018 • Immunogen IV - JWH-018 • Immunogen VII - JWH-015 • Immunogen VIII - JWH-018 Table 4: Cross reactivity of the competitive ELISAs for synthetic cannabinoids and their metabolites
Background: In an ELISA, binding on a coated surface is turned into a signal by an enzyme label.

The subject of another assay is Antibody to Immunogen I. Particulars: Cross-reactants at 100 ng/ml; Antibody to Immunogen I. A digest of the protocol:
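Sheep anti-Immunogen I IgG coated on plates, then JWH-018 standards (0–40 ng/ml) competed with hapten-HRP conjugate for 1 h at 25°C. TMB read-out at 450 nm, 4-parameter fit. IC50 is the standard concentration giving 50% B/B0; cross-reactivity of related cannabinoids taken from the calibration curves.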

For assay [1], the system named is Antibody to Immunogen VIII. Particulars: Cross-reactants at 100 ng/ml; Antibody to Immunogen VIII.
Another assay relates to Antibody to Immunogen IV. Particulars: Cross-reactants at 100 ng/ml; Antibody to Immunogen IV.
For assay [2], the system named is Antibody to Immunogen VII.
Setting [3] is: Cross-reactants at 100 ng/ml, Antibody to Immunogen VII.

On to `CC(C)CCn1cc(C(=O)c2cccc3ccccc23)c2ccccc21` [JWH 018 N-(3-methylbutyl) isomer (JWH-073 3-methylbutyl homologue), JWH 018 N-(3-methylbutyl) isomer], for which the “%B/B0” value in the assay with Antibody to Immunogen II was 30.38%; with Antibody to Immunogen I it was 3.16%; in assay [1], 53.29%; with Antibody to Immunogen IV, 12.75%; in assay [2] (setting [3]) it was 48.81%.

Turning to `CCCCCCn1cc(C(=O)c2cccc3ccccc23)c2cc(O)ccc21` [JWH 019 5-hydroxyindole metabolite], the “%B/B0” value in the assay on Antibody to Immunogen II is 17.34%; in the assay with Antibody to Immunogen I, 19.81%; in assay [1], 101.57%; with Antibody to Immunogen IV it was 93.84%; in assay [2] (setting [3]) it was 87.58%.

Consider `CCCCn1cc(C(=O)c2c(C)ccc3ccccc23)c2ccccc21` [JWH 073 2-methylnaphthyl analog], for which the “%B/B0” value in the assay with Antibody to Immunogen II is on record as 43.34%; in the assay with Antibody to Immunogen I, 21.84%; in assay [1], 78.79%; with Antibody to Immunogen IV, 34.47%; in assay [2] (setting [3]), 76.74%.

In the case of `CCCCCn1cc(C(=O)c2c(C)ccc3ccccc23)c2ccccc21` [JWH 122 2-methylnaphthyl isomer], the “%B/B0” value in the assay on Antibody to Immunogen II came to 27.14%; in the assay with Antibody to Immunogen I, 33.35%; in assay [1], 61.74%; in the assay on Antibody to Immunogen IV it was 26.13%; in assay [2] (setting [3]), 85.37%.

On to `CCCCCn1cc(C(=O)c2cccc3cc(C)ccc23)c2ccccc21` [JWH 122 6-methylnaphthyl isomer], for which the “%B/B0” value came out at 39.17% in the assay with Antibody to Immunogen II; 12.55% in the assay with Antibody to Immunogen I; 20.46% in assay [1]; 8.12% in the assay on Antibody to Immunogen IV; 86.66% in assay [2] (setting [3]).

Turning to `CCCCCn1cc(C(=O)c2cccc3ccc(C)cc23)c2ccccc21` [JWH 122 7-methylnaphthyl isomer], the “%B/B0” value in the assay with Antibody to Immunogen II is reported as 38.28%; in the assay on Antibody to Immunogen I it was 36.46%; in assay [1], 38.48%; with Antibody to Immunogen IV, 13.48%; in assay [2] (setting [3]), 92.44%.

On to `CCCCCn1c(C)c(C(=O)c2cccc3ccccc23)c2ccccc21` [JWH-007], for which the “%B/B0” value in the assay on Antibody to Immunogen II turned out to be 66.06%; in the assay on Antibody to Immunogen I, 32.96%; in assay [1], 61.76%; in the assay with Antibody to Immunogen IV, 60.63%; in assay [2] (setting [3]), 27.77%.

Turning to `CCCn1c(C)c(C(=O)c2cccc3ccccc23)c2ccccc21` [JWH-015], the “%B/B0” value in the assay with Antibody to Immunogen II turned out to be 65.67%; in the assay with Antibody to Immunogen I, 14.67%; in assay [1], 92.27%; with Antibody to Immunogen IV, 93.20%; in assay [2] (setting [3]), 17.84%; in assay [2] (JWH-015 standard 1.25 ng/ml) it was 75%. Also, the “%B/B0” value turned out to be 62% in assay [2] (JWH-015 standard 2.5 ng/ml); 54% in assay [2] (JWH-015 standard 5 ng/ml); 43% in assay [2] (JWH-015 standard 10 ng/ml); 34% in assay [2] (JWH-015 standard 20 ng/ml); 26% in assay [2] (JWH-015 standard 40 ng/ml); 20% in assay [2] (JWH-015 standard 80 ng/ml). In assay [2] (Table 3c standard curve, standard concentration which produces 50% B/B0), the IC50 (usually the concentration at which inhibition is half-maximal) is 5.910 ng/mL.

Regarding `CCCCn1c(C)c(C(=O)c2cccc3ccccc23)c2ccccc21` [JWH-016], the “%B/B0” value was 68.73% in the assay with Antibody to Immunogen II; 20.71% with Antibody to Immunogen I; 75.24% in assay [1]; 91.14% in the assay with Antibody to Immunogen IV; 19.31% in assay [2] (setting [3]).

`CCCCCn1cc(C(=O)c2cccc3ccccc23)c2ccc(OC)cc21` [JWH-018 6-methoxyindole analogue]: the “%B/B0” value with Antibody to Immunogen II amounted to 20.44%; with Antibody to Immunogen I, 10.55%; in assay [1], 77.22%; with Antibody to Immunogen IV, 90.65%; in assay [2] (setting [3]) it was 72.33%.

Take `CCCCCn1cc(C(=O)c2cccc3ccccc23)c2cccc(O)c21` [JWH-018 7-hydroxyindole metabolite]: the “%B/B0” value in the assay on Antibody to Immunogen II is on record as 34.79%; with Antibody to Immunogen I, 6.72%; in assay [1] it was 94.46%; in the assay with Antibody to Immunogen IV it was 93.31%; in assay [2] (setting [3]), 68.53%.

On to `CC(C)(C)Cn1cc(C(=O)c2cccc3ccccc23)c2ccccc21` [JWH-018 N-(2,2-dimethylpropyl) isomer], for which the “%B/B0” value came out at 60.15% in the assay on Antibody to Immunogen II; 3.89% in the assay on Antibody to Immunogen I; 95.09% in assay [1]; 80.42% in the assay on Antibody to Immunogen IV; 52.46% in assay [2] (setting [3]).

Regarding `CCCCCCn1cc(C(=O)c2cccc3ccccc23)c2ccccc21` [JWH-019], the “%B/B0” value came to 15.42% with Antibody to Immunogen II; 7.22% in the assay with Antibody to Immunogen I; 74.50% in assay [1]; 21.96% in the assay with Antibody to Immunogen IV; 70.05% in assay [2] (setting [3]).

Take `CCCCCCCn1cc(C(=O)c2cccc3ccccc23)c2ccccc21` [JWH-020]: the “%B/B0” value in the assay with Antibody to Immunogen II came out at 35.75%; with Antibody to Immunogen I, 16.03%; in assay [1], 100.73%; with Antibody to Immunogen IV, 73.73%; in assay [2] (setting [3]), 81.30%.

With `C=CCCCn1cc(C(=O)c2cccc3ccccc23)c2ccccc21` [JWH-022], the “%B/B0” value in the assay on Antibody to Immunogen II is 11.72%; in the assay with Antibody to Immunogen I, 4.51%; in assay [1], 28.94%; in the assay with Antibody to Immunogen IV, 10.61%; in assay [2] (setting [3]), 58.44%.

For the compound `CCCCn1cc(C(=O)c2cccc3ccccc23)c2c(O)cccc21` [JWH-073 4-hydroxyindole metabolite], the “%B/B0” value was found to be 40.14% in the assay on Antibody to Immunogen II; 39.50% in the assay on Antibody to Immunogen I; 26.23% in assay [1]; 28.69% in the assay on Antibody to Immunogen IV; 82.82% in assay [2] (setting [3]).

As for `CCCCn1cc(C(=O)c2cccc3ccccc23)c2cc(O)ccc21` [JWH-073 5-hydroxyindole metabolite], the “%B/B0” value is 20.73% in the assay with Antibody to Immunogen II; 7.34% in the assay with Antibody to Immunogen I; 90.70% in assay [1]; 84.06% with Antibody to Immunogen IV; 75.11% in assay [2] (setting [3]).

With `CCCCn1cc(C(=O)c2cccc3ccccc23)c2ccc(O)cc21` [JWH-073 6-hydroxyindole metabolite], the “%B/B0” value with Antibody to Immunogen II is recorded as 28.03%; in the assay with Antibody to Immunogen I it was 5.93%; in assay [1], 93.52%; in the assay with Antibody to Immunogen IV it was 74.89%; in assay [2] (setting [3]) it was 61.83%.

Consider `CCCCn1cc(C(=O)c2cccc3ccccc23)c2cccc(O)c21` [JWH-073 7-hydroxyindole metabolite], for which the “%B/B0” value was 46.05% in the assay on Antibody to Immunogen II; 5.59% with Antibody to Immunogen I; 94.04% in assay [1]; 96.95% in the assay on Antibody to Immunogen IV; 61.78% in assay [2] (setting [3]).

Take `CC(O)CCn1cc(C(=O)c2cccc3ccccc23)c2ccccc21` (centres unmarked) [JWH-073 N-(3-hydroxybutyl) metabolite]: the “%B/B0” value came to 54.52% in the assay with Antibody to Immunogen II; 3.10% in the assay on Antibody to Immunogen I; 94.04% in assay [1]; 53.52% in the assay with Antibody to Immunogen IV; 43.39% in assay [2] (setting [3]).

On to `O=C(c1cccc2ccccc12)c1cn(CCCCO)c2ccccc12` [JWH-073 N-(4-hydroxybutyl) metabolite], for which the “%B/B0” value in the assay on Antibody to Immunogen II stood at 60.01%; in the assay on Antibody to Immunogen I it was 3.22%; in assay [1] it was 57.99%; in the assay on Antibody to Immunogen IV, 52.61%; in assay [2] (setting [3]) it was 48.81%.
